Experimental findings from patent US11802111B2, “Cyclobutyl amide monoacylglycerol lipase modulators” (Janssen Pharmaceutica NV, priority 2020, dated 2023) are described below.

Sequence of human MGL from HeLa cells (Q99685 whole entry): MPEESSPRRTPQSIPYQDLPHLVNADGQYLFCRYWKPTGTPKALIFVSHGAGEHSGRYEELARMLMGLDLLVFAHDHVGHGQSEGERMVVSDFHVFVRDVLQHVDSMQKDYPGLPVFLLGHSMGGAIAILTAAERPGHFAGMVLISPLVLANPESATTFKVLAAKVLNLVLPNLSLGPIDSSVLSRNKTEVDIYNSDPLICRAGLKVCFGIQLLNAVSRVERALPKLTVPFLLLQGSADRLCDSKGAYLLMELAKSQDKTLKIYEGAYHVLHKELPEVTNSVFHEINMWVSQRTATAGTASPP

This assay addresses human MGL from HeLa cells (Homo sapiens (Human), UniProt Q99685). Briefly: MGL in vitro activity assay ([glycerol-1,3-3H]-oleoyl glycerol hydrolysis, activated carbon filtration). To be noted: 300 nM [Glycerol-1,3-3H]-oleoyl glycerol, one hour. Type of assay: biochemical. In outline: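 Activity measured as tritium in the flow-through after activated carbon filtration of a 1 h reaction containing 300 nM 3H-oleoyl glycerol, compound and HeLa-derived human MGL. Compounds screened at 10 μM; IC50 series start at an empirically chosen highest concentration.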
In turn, `COc1cccc(OC2CCC3(CC2)CN(C(=O)[C@H]2C[C@@](C)(O)C2)C3)c1C` [Example 409, ((1s,3s)-3-Hydroxy-3-methylcyclobutyl)(7-(3-methoxy-2-methylphenoxy)-2-azaspiro[3.5]nonan-2-yl)methanone] yielded a concentration for half-maximal inhibition (IC50) of 0.042 µM.
With `Cc1ccc(Cl)c(OC2CCC3(CC2)CN(C(=O)[C@H]2C[C@@](C)(O)C2)C3)c1` [Example 410, (7-(2-Chloro-5-methylphenoxy)-2-azaspiro[3.5]nonan-2-yl)((1s,3s)-3-hydroxy-3-methylcyclobutyl)methanone], the 50% inhibitory concentration (IC50) stood at 0.0028 µM.
Compound `Cc1ccc(OC2CCC3(CC2)CN(C(=O)[C@H]2C[C@@](C)(O)C2)C3)cc1Cl` [Example 411, (7-(3-Chloro-4-methylphenoxy)-2-azaspiro[3.5]nonan-2-yl)((1s,3s)-3-hydroxy-3-methylcyclobutyl)methanone] gave a 50% inhibitory concentration (IC50) of 0.0091 µM.
Turning to `Cc1cc(Cl)ccc1OC1CCC2(CC1)CN(C(=O)[C@H]1C[C@@](C)(O)C1)C2` [Example 412, (7-(4-Chloro-2-methylphenoxy)-2-azaspiro[3.5]nonan-2-yl)((1s,3s)-3-hydroxy-3-methylcyclobutyl)methanone], the IC50 was 0.0014 µM.
For the compound `Cc1c(Cl)cccc1OC1CCC2(CC1)CN(C(=O)[C@H]1C[C@@](C)(O)C1)C2` [Example 413, (7-(3-Chloro-2-methylphenoxy)-2-azaspiro[3.5]nonan-2-yl)((1s,3s)-3-hydroxy-3-methylcyclobutyl)methanone], the IC50 was 0.022 µM.
`COc1cc(OC2CCC3(CC2)CN(C(=O)[C@H]2C[C@@](C)(O)C2)C3)ccc1Cl` [Example 414, (7-(4-Chloro-3-methoxyphenoxy)-2-azaspiro[3.5]nonan-2-yl)((1s,3s)-3-hydroxy-3-methylcyclobutyl)methanone]: half-maximal inhibition (IC50) required 0.015 µM.
In turn, `C[C@]1(O)C[C@@H](C(=O)N2CC3(CCC(Oc4ccc(C5CC5)c(F)c4)CC3)C2)C1` [Example 415, (7-(4-Cyclopropyl-3-fluorophenoxy)-2-azaspiro[3.5]nonan-2-yl)((1s,3s)-3-hydroxy-3-methylcyclobutyl)methanone] had an IC50 of 0.0033 µM.
The compound `Cc1ccc(C(F)(F)F)cc1OC1CCC2(CC1)CN(C(=O)[C@H]1C[C@@](C)(O)C1)C2` [Example 416, ((1s,3s)-3-Hydroxy-3-methylcyclobutyl)(7-(2-methyl-5-(trifluoromethyl)phenoxy)-2-azaspiro[3.5]nonan-2-yl)methanone] registered a half-maximal inhibitory concentration (IC50) of 0.0019 µM.
In turn, `C[C@]1(O)C[C@@H](C(=O)N2CC3(CCC(Oc4ccc(C(F)(F)F)cn4)CC3)C2)C1` [Example 417, ((1s,3s)-3-Hydroxy-3-methylcyclobutyl)(7-((5-(trifluoromethyl)pyridin-2-yl)oxy)-2-azaspiro[3.5]nonan-2-yl)methanone] came in with an IC50 of 0.029 µM.
`C[C@]1(O)C[C@@H](C(=O)N2CC3(CCC(Oc4cc(C(F)(F)F)ccn4)CC3)C2)C1` [Example 418, ((1s,3s)-3-Hydroxy-3-methylcyclobutyl)(7-((4-(trifluoromethyl)pyridin-2-yl)oxy)-2-azaspiro[3.5]nonan-2-yl)methanone] yielded an IC50 of 0.18 µM. Against the preceding compound, the IC50 is about 6.2-fold higher.
`CC1(Oc2ccc(C(F)(F)F)cn2)CCC2(CC1)CN(C(=O)[C@H]1C[C@@](C)(O)C1)C2` [Example 419, ((1s,3s)-3-Hydroxy-3-methylcyclobutyl)(7-methyl-7-((5-(trifluoromethyl)pyridin-2-yl)oxy)-2-azaspiro[3.5]nonan-2-yl)methanone]: the IC50 was found to be 0.012 µM.
Regarding `CCC1(Oc2ccc(C(F)(F)F)cn2)CCC2(CC1)CN(C(=O)[C@H]1C[C@@](C)(O)C1)C2` [Example 420, (7-Ethyl-7-((5-(trifluoromethyl)pyridin-2-yl)oxy)-2-azaspiro[3.5]nonan-2-yl)((1s,3s)-3-hydroxy-3-methylcyclobutyl)methanone], inhibition was half-maximal at 0.033 µM (IC50).
In the case of `C[C@]1(O)C[C@@H](C(=O)N2CC3(CCC(Oc4cccc(C(F)(F)F)n4)CC3)C2)C1` [Example 421, ((1s,3s)-3-Hydroxy-3-methylcyclobutyl)(7-((6-(trifluoromethyl)pyridin-2-yl)oxy)-2-azaspiro[3.5]nonan-2-yl)methanone], 0.084 µM corresponded to half-maximal inhibition (IC50).
Take `CC(F)(F)c1ccc(OC2CCC3(CC2)CN(C(=O)[C@H]2C[C@@](C)(O)C2)C3)nc1` [Example 422, (7-((5-(1,1-Difluoroethyl)pyridin-2-yl)oxy)-2-azaspiro[3.5]nonan-2-yl)((1s,3s)-3-hydroxy-3-methylcyclobutyl)methanone]: the half-inhibitory concentration (IC50) worked out at 0.024 µM.
The compound `C[C@]1(O)C[C@@H](C(=O)N2CC3(CCC(Oc4ccc(C(F)F)cn4)CC3)C2)C1` [Example 423, (7-((5-(Difluoromethyl)pyridin-2-yl)oxy)-2-azaspiro[3.5]nonan-2-yl)((1s,3s)-3-hydroxy-3-methylcyclobutyl)methanone] showed a half-inhibitory concentration (IC50) of 0.188 µM.
For `C[C@]1(O)C[C@@H](C(=O)N2CC3(CCC(Oc4ccc(C(F)(F)F)nc4)CC3)C2)C1` [Example 424, ((1s,3s)-3-Hydroxy-3-methylcyclobutyl)(7-((6-(trifluoromethyl)pyridin-3-yl)oxy)-2-azaspiro[3.5]nonan-2-yl)methanone], half-maximal inhibition (IC50) required 0.099 µM.
As to `CC(C)(C)c1cccc(OC2CCC3(CC2)CN(C(=O)[C@H]2C[C@@](C)(O)C2)C3)n1` [Example 425, (7-((6-(tert-Butyl)pyridin-2-yl)oxy)-2-azaspiro[3.5]nonan-2-yl)((1s,3s)-3-hydroxy-3-methylcyclobutyl)methanone], the IC50 was found to be 0.0078 µM.
The value for `C[C@]1(O)C[C@@H](C(=O)N2CC3(CCC(Oc4ccc(C5CC5)cn4)CC3)C2)C1` [Example 426, (7-((5-Cyclopropylpyridin-2-yl)oxy)-2-azaspiro[3.5]nonan-2-yl)((1s,3s)-3-hydroxy-3-methylcyclobutyl)methanone] was 0.02 µM.
For the compound `C[C@]1(O)C[C@@H](C(=O)N2CC3(CCC(Oc4ccc(OC(F)(F)F)cn4)CC3)C2)C1` [Example 427, ((1s,3s)-3-Hydroxy-3-methylcyclobutyl)(7-((5-(trifluoromethoxy)pyridin-2-yl)oxy)-2-azaspiro[3.5]nonan-2-yl)methanone], the concentration for half-maximal inhibition (IC50) came to 0.028 µM.
As for `Cc1ccc(OC2CCC3(CC2)CN(C(=O)[C@H]2C[C@@](C)(O)C2)C3)nc1C` [Example 428, (7-((5,6-Dimethylpyridin-2-yl)oxy)-2-azaspiro[3.5]nonan-2-yl)((1s,3s)-3-hydroxy-3-methylcyclobutyl)methanone], the IC50 was 0.047 µM.
Compound `Cc1ccc(C)c(OC2CCC3(CC2)CN(C(=O)[C@H]2C[C@@](C)(O)C2)C3)n1` [Example 429, (7-((3,6-Dimethylpyridin-2-yl)oxy)-2-azaspiro[3.5]nonan-2-yl)((1s,3 s)-3-hydroxy-3-methylcyclobutyl)methanone] yielded an IC50 of 0.019 µM.
Take `Cc1cnc(OC2CCC3(CC2)CN(C(=O)[C@H]2C[C@@](C)(O)C2)C3)c(C)c1` [Example 430, (7-((3,5-Dimethylpyridin-2-yl)oxy)-2-azaspiro[3.5]nonan-2-yl)((1s,3s)-3-hydroxy-3-methylcyclobutyl)methanone]: inhibition was half-maximal at 0.012 µM (IC50).
Take `Cc1ccc(F)c(OC2CCC3(CC2)CN(C(=O)[C@H]2C[C@@](C)(O)C2)C3)n1` [Example 431, (7-((3-Fluoro-6-methylpyridin-2-yl)oxy)-2-azaspiro[3.5]nonan-2-yl)((1s,3s)-3-hydroxy-3-methylcyclobutyl)methanone]: the half-inhibitory concentration (IC50) worked out at 0.097 µM. This IC50 is about 8.1-fold higher than that of the compound before.
The value for `Cc1cnc(OC2CCC3(CC2)CN(C(=O)[C@H]2C[C@@](C)(O)C2)C3)c(F)c1` [Example 432, (7-((3-Fluoro-5-methylpyridin-2-yl)oxy)-2-azaspiro[3.5]nonan-2-yl)((1s,3s)-3-hydroxy-3-methylcyclobutyl)methanone] was 0.071 µM.
The value for `CCc1cnc(OC2CCC3(CC2)CN(C(=O)[C@H]2C[C@@](C)(O)C2)C3)c(F)c1` [Example 433, (7-((5-Ethyl-3-fluoropyridin-2-yl)oxy)-2-azaspiro[3.5]nonan-2-yl)((1s,3s)-3-hydroxy-3-methylcyclobutyl)methanone] was 0.014 µM; that for `Cc1nc(OC2CCC3(CC2)CN(C(=O)[C@H]2C[C@@](C)(O)C2)C3)ccc1Cl` [Example 434, (7-((5-Chloro-6-methylpyridin-2-yl)oxy)-2-azaspiro[3.5]nonan-2-yl)((1s,3s)-3-hydroxy-3-methylcyclobutyl)methanone] was 0.025 µM; that for `Cc1ccc(Cl)c(OC2CCC3(CC2)CN(C(=O)[C@H]2C[C@@](C)(O)C2)C3)n1` [Example 435, (7-((3-Chloro-6-methylpyridin-2-yl)oxy)-2-azaspiro[3.5]nonan-2-yl)((1s,3s)-3-hydroxy-3-methylcyclobutyl)methanone] was 0.0084 µM.
As for `Cc1cnc(OC2CCC3(CC2)CN(C(=O)[C@H]2C[C@@](C)(O)C2)C3)c(Cl)c1` [Example 436, (7-((3-Chloro-5-methylpyridin-2-yl)oxy)-2-azaspiro[3.5]nonan-2-yl)((1s,3s)-3-hydroxy-3-methylcyclobutyl)methanone], the IC50 was found to be 0.013 µM.
In turn, `Cc1cc(Cl)cnc1OC1CCC2(CC1)CN(C(=O)[C@H]1C[C@@](C)(O)C1)C2` [Example 437, (7-((5-Chloro-3-methylpyridin-2-yl)oxy)-2-azaspiro[3.5]nonan-2-yl)((1s,3s)-3-hydroxy-3-methylcyclobutyl)methanoneo] returned a half-maximal inhibitory concentration (IC50) of 0.0037 µM.
On to `Cc1nc(OC2CCC3(CC2)CN(C(=O)[C@H]2C[C@@](C)(O)C2)C3)ccc1C(F)F` [Example 438, (7-((5-(Difluoromethyl)-6-methylpyridin-2-yl)oxy)-2-azaspiro[3.5]nonan-2-yl)((1s,3s)-3-hydroxy-3-methylcyclobutyl)methanone], for which half-maximal inhibition (IC50) was put at 0.032 µM.
`CCc1ccc(OC2CCC3(CC2)CN(C(=O)[C@H]2C[C@@](C)(O)C2)C3)nc1C(F)F` [Example 439, (7-((6-(Difluoromethyl)-5-ethylpyridin-2-yl)oxy)-2-azaspiro[3.5]nonan-2-yl)((1s,3s)-3-hydroxy-3-methylcyclobutyl)methanone] showed an IC50 of 0.0018 µM.
